Measured values taken from ChEMBL document CHEMBL1201862, “PubChem BioAssay data set” (2004).
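Where inhibition never reached the appropriate level, the endpoint shown equals the highest concentration tested. Otherwise, values were interpolated linearly from a five-concentration, 48-hour dose response in 96-well plates. At the GI50, growth is halved.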 Calls of active or inactive are those of the source. Rule as the data show it: active = GI50 up to about 1.1 µM and inactive = higher.

Columns and labels:
Assay in all cases: NCI anticancer screen, dose series, 48 h
786-0 = system: 786-0
A498 = system: A498
A549 = system: A549
ACHN = system: ACHN
CAKI-1 = system: CAKI-1
CCRF-CEM = system: CCRF-CEM
COLO 205 = system: COLO 205
DU-145 = system: DU-145
EKVX = system: EKVX
HCC 2998 = system: HCC 2998
HCT-116 = system: HCT-116
HCT-15 = system: HCT-15
HL-60 = system: HL-60
HOP-62 = system: HOP-62
HOP-92 = system: HOP-92
HT-29 = system: HT-29
Hs-578T = system: Hs-578T
IGROV-1 = system: IGROV-1
K562 = system: K562
KM12 = system: KM12
LOX IMVI = system: LOX IMVI
M14 = system: M14
MCF7 = system: MCF7
MDA-MB-231 = system: MDA-MB-231
MDA-MB-435 = system: MDA-MB-435
MDA-N = system: MDA-N
MOLT-4 = system: MOLT-4
Malme-3M = system: Malme-3M
NCI-H226 = system: NCI-H226
NCI-H23 = system: NCI-H23
NCI-H460 = system: NCI-H460
NCI-H522 = system: NCI-H522
NCI/ADR-RES = system: NCI/ADR-RES
OVCAR-3 = system: OVCAR-3
OVCAR-4 = system: OVCAR-4
OVCAR-5 = system: OVCAR-5
OVCAR-8 = system: OVCAR-8
PC-3 = system: PC-3
RPMI-8226 = system: RPMI-8226
RXF 393 = system: RXF 393
SF-268 = system: SF-268
SF-539 = system: SF-539
SK-MEL-28 = system: SK-MEL-28
SK-MEL-2 = system: SK-MEL-2
SK-MEL-5 = system: SK-MEL-5
SK-OV-3 = system: SK-OV-3
SN12C = system: SN12C
SNB-19 = system: SNB-19
SNB-75 = system: SNB-75
SW-620 = system: SW-620
T47D = system: T47D
TK-10 = system: TK-10
U-251 = system: U-251
UACC-257 = system: UACC-257
UO-31 = system: UO-31
SF-295 = system: SF-295
UACC-62 = system: UACC-62

`CS(=O)(=O)N1CC(CCl)c2ccc(NCCN)cc21` (configuration not stated) was tested. Which GI50 (786-0) did it give?
Its GI50 is 18.7 µM (inactive).

What about the GI50 (A498) of the same compound?
The GI50 was 69 µM (inactive).

And the GI50 (A549)?
The GI50 was > 100 µM (inactive).

What about the GI50 (ACHN) of the same compound?
The GI50 was 29.9 µM (inactive).

What about the GI50 (CAKI-1) of the same compound?
The GI50 was 96.2 µM (inactive).

What about the GI50 (CCRF-CEM) of the same compound?
Its GI50 is 79.8 µM (inactive).

And the GI50 (COLO 205)?
Its GI50 is > 100 µM (inactive).

And the GI50 (DU-145)?
Its GI50 is > 100 µM (inactive).

What about the GI50 (EKVX) of the same compound?
The GI50 was 47.9 µM (inactive).

And the GI50 (HCC 2998)?
The GI50 was > 100 µM (inactive).

And the GI50 (HCT-116)?
Its GI50 is 83.2 µM (inactive).

What about the GI50 (HCT-15) of the same compound?
The GI50 was greater than 100 µM.

And the GI50 (HL-60)?
The GI50 was > 100 µM (inactive).

And the GI50 (HOP-62)?
The GI50 was 14.8 µM (inactive).

And the GI50 (HOP-92)?
The GI50 was 26.3 µM (inactive).

And the GI50 (HT-29)?
Its GI50 is > 100 µM (inactive).

What about the GI50 (Hs-578T) of the same compound?
The GI50 was 27.2 µM (inactive).

What about the GI50 (IGROV-1) of the same compound?
Its GI50 is 12.5 µM (inactive).

And the GI50 (K562)?
The GI50 was > 100 µM (inactive).

And the GI50 (KM12)?
The GI50 was > 100 µM (inactive).

And the GI50 (LOX IMVI)?
Its GI50 is > 100 µM (inactive).

And the GI50 (M14)?
The GI50 was > 100 µM (inactive).

And the GI50 (MCF7)?
The GI50 was > 100 µM (inactive).

And the GI50 (MDA-MB-231)?
Its GI50 is 33.3 µM (inactive).

What about the GI50 (MDA-MB-435) of the same compound?
The GI50 was > 100 µM (inactive).

What about the GI50 (MDA-N) of the same compound?
Its GI50 is > 100 µM (inactive).

And the GI50 (MOLT-4)?
The GI50 was > 100 µM (inactive).

And the GI50 (Malme-3M)?
Its GI50 is > 100 µM (inactive).

And the GI50 (NCI-H226)?
Its GI50 is > 100 µM (inactive).

And the GI50 (NCI-H23)?
The GI50 was 53.7 µM (inactive).

And the GI50 (NCI-H460)?
The GI50 was > 100 µM (inactive).

What about the GI50 (NCI-H522) of the same compound?
The GI50 was 23.7 µM (inactive).

And the GI50 (NCI/ADR-RES)?
The GI50 was > 100 µM (inactive).

And the GI50 (OVCAR-3)?
The GI50 was > 100 µM (inactive).

What about the GI50 (OVCAR-4) of the same compound?
Its GI50 is 58.9 µM (inactive).

What about the GI50 (OVCAR-5) of the same compound?
Its GI50 is > 100 µM (inactive).

What about the GI50 (OVCAR-8) of the same compound?
Its GI50 is 57.5 µM (inactive).

And the GI50 (PC-3)?
Its GI50 is > 100 µM (inactive).

And the GI50 (RPMI-8226)?
Its GI50 is > 100 µM (inactive).

What about the GI50 (RXF 393) of the same compound?
Its GI50 is 35.4 µM (inactive).

What about the GI50 (SF-268) of the same compound?
Its GI50 is 39.1 µM (inactive).

And the GI50 (SF-539)?
Its GI50 is 72.6 µM (inactive).

What about the GI50 (SK-MEL-28) of the same compound?
Its GI50 is > 100 µM (inactive).

And the GI50 (SK-MEL-2)?
The GI50 was > 100 µM (inactive).

And the GI50 (SK-MEL-5)?
Its GI50 is > 100 µM (inactive).

And the GI50 (SK-OV-3)?
The GI50 was 22.1 µM (inactive).

And the GI50 (SN12C)?
Its GI50 is > 100 µM (inactive).

What about the GI50 (SNB-19) of the same compound?
Its GI50 is 39 µM (inactive).

And the GI50 (SNB-75)?
Its GI50 is 17.1 µM (inactive).

And the GI50 (SW-620)?
The GI50 was > 100 µM (inactive).

What about the GI50 (T47D) of the same compound?
The GI50 was > 100 µM (inactive).

And the GI50 (TK-10)?
Its GI50 is > 100 µM (inactive).

What about the GI50 (U-251) of the same compound?
The GI50 was 27.7 µM (inactive).

And the GI50 (UACC-257)?
Its GI50 is > 100 µM (inactive).

What about the GI50 (UO-31) of the same compound?
The GI50 was > 100 µM (inactive).

Which results are given for `CC(=O)/C=C1/C(=O)C(CC(C)C)=C1CC(C)C`?
GI50 (786-0): > 100 µM (inactive); GI50 (A498): > 100 µM (inactive); GI50 (A549): > 100 µM (inactive); GI50 (ACHN): > 100 µM (inactive); GI50 (CAKI-1): > 100 µM (inactive); GI50 (CCRF-CEM): 53.8 µM (inactive); GI50 (COLO 205): > 100 µM (inactive); GI50 (DU-145): > 100 µM (inactive); GI50 (EKVX): > 100 µM (inactive); GI50 (HCT-116): > 100 µM (inactive); GI50 (HCT-15): > 100 µM; GI50 (HL-60): > 100 µM (inactive); GI50 (HOP-62): > 100 µM (inactive); GI50 (HOP-92): > 100 µM (inactive); GI50 (HT-29): > 100 µM (inactive); GI50 (Hs-578T): > 100 µM (inactive); GI50 (IGROV-1): > 100 µM (inactive); GI50 (KM12): > 100 µM (inactive); GI50 (LOX IMVI): > 100 µM (inactive); GI50 (M14): > 100 µM (inactive); GI50 (MCF7): > 100 µM (inactive); GI50 (MDA-MB-231): > 100 µM (inactive); GI50 (MDA-MB-435): > 100 µM (inactive); GI50 (MDA-N): > 100 µM (inactive); GI50 (MOLT-4): 92.3 µM (inactive); GI50 (Malme-3M): > 100 µM (inactive); GI50 (NCI-H226): > 100 µM (inactive); GI50 (NCI-H23): > 100 µM (inactive); GI50 (NCI-H522): > 100 µM (inactive); GI50 (NCI/ADR-RES): > 100 µM (inactive); GI50 (OVCAR-4): > 100 µM (inactive); GI50 (OVCAR-5): > 100 µM (inactive); GI50 (OVCAR-8): > 100 µM (inactive); GI50 (PC-3): > 100 µM (inactive); GI50 (RXF 393): > 100 µM (inactive); GI50 (SF-268): > 100 µM (inactive); GI50 (SF-295): > 100 µM (inactive); GI50 (SF-539): > 100 µM (inactive); GI50 (SK-MEL-28): > 100 µM (inactive); GI50 (SK-MEL-2): > 100 µM (inactive); GI50 (SK-MEL-5): > 100 µM (inactive); GI50 (SK-OV-3): > 100 µM (inactive); GI50 (SN12C): > 100 µM (inactive); GI50 (SNB-19): > 100 µM (inactive); GI50 (SNB-75): > 100 µM (inactive); GI50 (SW-620): > 100 µM (inactive); GI50 (T47D): > 100 µM (inactive); GI50 (TK-10): > 100 µM (inactive); GI50 (U-251): > 100 µM (inactive); GI50 (UACC-257): > 100 µM (inactive); GI50 (UACC-62): > 100 µM (inactive); GI50 (UO-31): > 100 µM (inactive)
